# Legend:
# Type in all cases: in vivo
# adiponectin = test: Oral administration to human volunteers: blood concentration of adiponectin; conditions: samples at 30 minute intervals vs time 0, FIG. 2
# Description: In this instance the effect of oral administration of CFB on the blood concentration of adiponectin, along with the effect of administration of sodium borate (Na borate), and a placebo compound was measured. Blood samples were taken at a time 0 prior to administration in order to establish a baseline concentration for each individual. Additional samples were taken at 30 minute intervals, and the concentration of adiponectin compared to the baseline level determined for each individual. […] The mechanism for this increase in adiponectin concentration in the blood is not known, but it is contemplated that it may due to increased synthesis, increased release of stored adiponectin, or a combination of these. Therefore, in some embodiments of the inventive subject matter blood concentrations of adiponectin may be increased by about 1%, 2%, 3%, 4%, 5%, 10%, 15%, 20%, 25%, 30%, or more relative to pretreatment values following administration of a boro-carbohydrate complex.
# (§1) In all of the above oral administrations, the human volunteers were provided with orally administered single daily doses of 5-50 mg of calcium fructoborate for at least 14 days. […]
# total osteocalcin = test: Oral administration to human volunteers: total osteocalcin in blood; conditions: data not shown
# [1] = system: under-carboxylated osteocalcin; test: Oral administration to human volunteers: under-carboxylated osteocalcin in blood (Cusabio immunoassay); conditions: single daily doses of 5-50 mg, samples after 7 and 14 days vs day 0, FIG. 1
# Description: In this instance the effect of administration of a CFB on the concentration of under-carboxylated osteocalcin in the blood of human volunteers, along with the effect of administration of sodium borate (Na borate) and a placebo compound was measured. Blood samples were taken at day 0 prior to administration in order to establish a baseline concentration for each individual. Additional samples were taken after 7 and 14 days of treatment. Under-carboxylated osteocalcin was characterized using a commercially available immunoassay from Cusabio Biotech Co. LTD (Newark, Del.) according to the manufacturer's directions, and the percentage change from pretreatment concentrations of under-carboxylated osteocalcin were calculated. […] In some embodiments of the inventive subject matter the percentage of under-carboxylated osteocalcin (including non-carboxylated osteocalcin) may thus be reduced by about 1%, 2%, 3%, 4%, 5%, 10%, 15%, 20%, 25%, 30%, 35%, 40%, 45%, 50% or more relative to pretreatment values following oral administration of CFB.
# as §1
# C-reactive protein (CRP) = test: Oral administration to human volunteers: circulating C-reactive protein; conditions: FIG. 4
# Description: (§2) In all of the above oral administrations, the human volunteers were provided with orally administered single daily doses of 5-50 mg of calcium fructoborate for at least 14 days. However, it should be noted that the orally administered compositions may vary considerably, so long as at least 0.1 mg, more typically at least 1.0 mg, and most typically at least 10-100 mg of the compound are administered to the human (or other mammal). Thus, typical administrations will provide 0.001-0.01 mg/kg, more typically 0.01-0.1 mg/kg, and most typically 0.1-5.0 mg/kg (and in some cases even higher) of the boro-carbohydrate compound per day. Such administration may be performed in numerous formats, and all types of formulations comprising contemplated compounds are deemed suitable for use herein, including as nutritional supplement, as ingredient in a snack (e.g., energy bar, fruit leather, etc.), a cereal, a beverage, etc.
# Additionally, it is contemplated that compounds and compositions according to the inventive subject matter may influence various parameters associated with an inflammatory response, as YKL-40 has been proposed as a diagnostic marker for inflammation. […] Thus, it should be appreciated that contemplated compositions are especially advantageous in reduction of inflammatory markers and conditions associated with increased levels of such markers.
# YKL-40 = test: Oral administration to human volunteers: YKL-40 in blood (Quidel immunoassay); conditions: samples after 7 and 14 days vs Day 0, FIG. 3
# Description: as §2, with “Such administration may be performed in numerous formats, and all types of formulations comprising contemplated compounds are deemed suitable for use herein, including as nutritional supplement, as ingredient in a snack (e.g., energy bar, fruit leather, etc.), a cereal, a beverage, etc.” left out
# In this instance the effect of the administration of CFB on the concentration of YKL-40 in the blood of human volunteers, along with the effect of administration of sodium borate (Na borate) and a placebo compound, was measured. […]
# Additional samples were taken after 7 and 14 days of treatment, and the concentration of YKL-40 compared to the baseline level determined for each individual. YKL-40 was characterized using a commercially available immunoassay from Quidel (San Diego, Calif.) according to the manufacturer's directions, and the percentage change from pretreatment concentrations of YKL-40 were calculated. […]
Molecule,blood concentration of adiponectin compared to baseline (adiponectin),effect on total osteocalcin (total osteocalcin),"concentration of under-carboxylated osteocalcin in blood, percentage change from pretreatment [1]",concentration of circulating CRP (C-reactive protein (CRP)),"concentration of YKL-40 in blood, percentage change from pretreatment (YKL-40)"
"O.O.O.O.O.O.O.O.O.O.[Na+].[Na+].[O-]B1OB2OB([O-])OB(O1)O2 [sodium borate, reference compound]","similar, but markedly reduced, effect",,,,
calcium fructoborate [CFB],rapid and sustained increase,no discernable effect,significant reduction,substantially greater effect on reducing the concentration of CRP than sodium borate,significant reduction
